Data on seven compounds can be found in patent US20250353891A1 (MEDIMMUNE LIMITED, priority 2022, published 2025).

For assay [1], the target named is human glucagon receptor (hGCGR) (Homo sapiens, UniProt P47871). Briefly: cAMP production (HTRF) in CHO cells expressing hGCGR. The format is cell-based. Also noted: expressed in transfected cells. Particulars: Table 6, peptides modified at position 17; cAMP in CHO hGCGR cells; geometric mean; read-out: hGluc-R EC50. In a few lines: (§1)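 Potency values represent EC50 from 4-parameter logistic curves of HTRF % Delta F signal. Receptor-expressing CHO cells (hGCGR 2×10^5 cells/mL, hGLP-1R 1×10^5 cells/mL) were exposed for 30 min at room temperature before two-step cAMP detection.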
On the technique in general: Changes in cAMP serve as a functional read-out for many G protein-coupled receptors.

For assay [2], the target named is human GLP-1 receptor (hGLP-1R) (Homo sapiens, UniProt P43220). The assay can be described thus: cAMP production (HTRF) in CHO cells expressing hGLP-1R. The format is cell-based. Also noted: expressed in transfected cells. The following applies: for EC50: Table 6, peptides modified at position 17, cAMP in CHO hGLP-1R cells, geometric mean, read-out: hGLP-1R EC50; for % Relative Potency Ratio: Table 6, % GLP-1R activity relative to GLP-1 / % GlucR activity relative to glucagon. The gist of the method: as §1

Starred links: 1 amine or outer side, 2 acyl side, 3 side chain; linkers in the order of their positions; H or OH if unused. Non-standard residues stand in square brackets, D forms with d. Residues, ends and D or L forms follow the SMILES beside them. Groups on a side chain read outwards from the residue. *: point of attachment. Dip = N[C@H](C(=O)O)C(c1ccccc1)c1ccccc1; γGlu = O=C(O)[C@H](CCC(=O)[*:2])N[*:1]; Stearoyl = CCCCCCCCCCCCCCCCCC(=O)*; Palmitoyl = CCCCCCCCCCCCCCCC(=O)*; αMeF = C[C@](N)(Cc1ccccc1)C(=O)O; PEG4 = NCCOCCOCCOCCOCCC(=O)O; PEG2 = NCCOCCOCCC(=O)O; Aib = CC(C)(N)C(=O)O

Sequence of human GLP-1 receptor (hGLP-1R) (P43220 24-463): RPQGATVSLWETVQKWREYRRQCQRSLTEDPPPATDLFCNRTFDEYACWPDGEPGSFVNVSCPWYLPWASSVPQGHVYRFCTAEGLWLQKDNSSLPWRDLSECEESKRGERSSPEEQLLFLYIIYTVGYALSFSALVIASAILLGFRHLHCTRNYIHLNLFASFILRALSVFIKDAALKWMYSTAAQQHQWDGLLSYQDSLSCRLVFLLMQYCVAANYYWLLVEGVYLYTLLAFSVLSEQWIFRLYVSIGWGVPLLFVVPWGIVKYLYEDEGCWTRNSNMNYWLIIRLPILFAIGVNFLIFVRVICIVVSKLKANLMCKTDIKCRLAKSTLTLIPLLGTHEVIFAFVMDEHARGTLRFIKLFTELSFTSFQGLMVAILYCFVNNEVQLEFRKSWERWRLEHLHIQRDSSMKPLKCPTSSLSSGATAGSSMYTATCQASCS
Sequence of human glucagon receptor (hGCGR) (P47871 26-477): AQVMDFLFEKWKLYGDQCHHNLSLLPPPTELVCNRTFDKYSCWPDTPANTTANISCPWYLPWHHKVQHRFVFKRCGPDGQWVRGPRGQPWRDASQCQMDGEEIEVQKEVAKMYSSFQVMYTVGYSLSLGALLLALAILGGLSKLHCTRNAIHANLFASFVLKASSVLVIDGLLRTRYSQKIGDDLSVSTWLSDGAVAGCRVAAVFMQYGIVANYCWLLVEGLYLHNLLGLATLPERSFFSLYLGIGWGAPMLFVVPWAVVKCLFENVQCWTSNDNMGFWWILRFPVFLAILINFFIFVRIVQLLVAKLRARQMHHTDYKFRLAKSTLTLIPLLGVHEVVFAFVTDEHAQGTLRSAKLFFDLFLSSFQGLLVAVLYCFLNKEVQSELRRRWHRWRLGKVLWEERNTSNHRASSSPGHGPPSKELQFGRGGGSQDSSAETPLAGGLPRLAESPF

Broadly, the EC50 is the concentration at which the effect is half-maximal. `CCCCCCCCCCCCCCCC(=O)N[C@@H](CCC(=O)N[C@@H](CCC(=O)NCCOCCOCCC(=O)NCCOCCOCCC(=O)NCCCC[C@H](NC(=O)[C@H](CO)NC(=O)[C@H](CC(=O)O)NC(=O)[C@H](CC(C)C)NC(=O)[C@@H](NC(=O)[C@H](CCCCN)NC(=O)[C@H](CO)NC(=O)[C@@H](NC(=O)[C@H](CC(=O)O)NC(=O)[C@H](CO)NC(=O)[C@@H](NC(=O)[C@](C)(Cc1ccccc1)NC(=O)[C@H](CO)NC(=O)CNC(=O)[C@H](CCC(N)=O)NC(=O)[C@H](CO)NC(=O)[C@@H](N)Cc1c[nH]cn1)[C@@H](C)O)C(C)C)C(c1ccccc1)c1ccccc1)C(=O)N[C@@H](C)C(=O)N[C@@H](C)C(=O)N[C@@H](CCC(N)=O)C(=O)N[C@@H](CC(=O)O)C(=O)N[C@@](C)(Cc1ccccc1)C(=O)N[C@H](C(=O)N[C@@H](CCC(=O)O)C(=O)NC(C)(C)C(=O)N[C@H](C(=O)N[C@H](C(=O)N[C@@H](CC(N)=O)C(=O)N[C@H](C(N)=O)[C@@H](C)O)[C@@H](C)CC)[C@@H](C)CC)C(C)C)C(=O)O)C(=O)O` [Peptide 64] (H-HSQGS[αMeF]TSDVSK[Dip]LDSK([PEG2-PEG2-γGlu-γGlu-Palmitoyl])AAQD[αMeF]VE[Aib]IINT-NH2; N-terminus assumed): the figures for the 50% effective concentration (EC50) in assay [1] and in assay [2] were 0.00306 nM and 2.57 pM, respectively. The “% Relative Potency Ratio” value in assay [2] came to 2.4.
Taken in the same sequence, the figures for `CCCCCCCCCCCCCCCCCC(=O)N[C@@H](CCC(=O)N[C@@H](CCC(=O)NCCOCCOCCC(=O)NCCOCCOCCC(=O)NCCCC[C@H](NC(=O)[C@H](CO)NC(=O)[C@H](CC(=O)O)NC(=O)[C@H](CC(C)C)NC(=O)[C@@H](NC(=O)[C@H](CCCCN)NC(=O)[C@H](CO)NC(=O)[C@@H](NC(=O)[C@H](CC(=O)O)NC(=O)[C@H](CO)NC(=O)[C@@H](NC(=O)[C@](C)(Cc1ccccc1)NC(=O)[C@H](CO)NC(=O)CNC(=O)[C@H](CCC(N)=O)NC(=O)C(C)(C)NC(=O)[C@@H](N)Cc1c[nH]cn1)[C@@H](C)O)C(C)C)C(c1ccccc1)c1ccccc1)C(=O)N[C@@H](C)C(=O)N[C@@H](C)C(=O)N[C@@H](CCC(N)=O)C(=O)N[C@@H](CC(=O)O)C(=O)N[C@@](C)(Cc1ccccc1)C(=O)N[C@H](C(=O)N[C@@H](CCC(N)=O)C(=O)NC(C)(C)C(=O)N[C@H](C(=O)N[C@@H](C)C(=O)N[C@@H](CC(N)=O)C(N)=O)[C@@H](C)CC)C(C)C)C(=O)O)C(=O)O` [Peptide 66] (H-H[Aib]QGS[αMeF]TSDVSK[Dip]LDSK([PEG2-PEG2-γGlu-γGlu-Stearoyl])AAQD[αMeF]VQ[Aib]IAN-NH2; N-terminus assumed) were 0.00643 nM, 1.52 pM and 8.3.
Regarding `CCCCCCCCCCCCCCCC(=O)N[C@@H](CCC(=O)NCCOCCOCCC(=O)NCCOCCOCCC(=O)NCCCC[C@H](NC(=O)[C@H](CO)NC(=O)[C@H](CC(=O)O)NC(=O)[C@H](CC(C)C)NC(=O)[C@@H](NC(=O)[C@H](CCCCN)NC(=O)[C@H](CO)NC(=O)[C@@H](NC(=O)[C@H](CC(=O)O)NC(=O)[C@H](CO)NC(=O)[C@@H](NC(=O)[C@](C)(Cc1ccccc1)NC(=O)[C@H](CO)NC(=O)CNC(=O)[C@H](CCC(N)=O)NC(=O)C(C)(C)NC(=O)[C@@H](N)Cc1c[nH]cn1)[C@@H](C)O)C(C)C)C(c1ccccc1)c1ccccc1)C(=O)N[C@@H](C)C(=O)N[C@@H](C)C(=O)N[C@@H](CCC(N)=O)C(=O)N[C@@H](CC(=O)O)C(=O)N[C@@](C)(Cc1ccccc1)C(=O)N[C@H](C(=O)N[C@@H](CCC(N)=O)C(=O)NC(C)(C)C(=O)N[C@H](C(=O)N[C@@H](C)C(=O)N[C@@H](CC(N)=O)C(N)=O)[C@@H](C)CC)C(C)C)C(=O)O` [Peptide 67] (H-H[Aib]QGS[αMeF]TSDVSK[Dip]LDSK([PEG2-PEG2-γGlu-Palmitoyl])AAQD[αMeF]VQ[Aib]IAN-NH2; N-terminus assumed), in assay [1], the half-maximal effective concentration (EC50) came to 0.00949 nM. In assay [2], the concentration giving a half-maximal response (EC50) was found to be 2.43 pM and the “% Relative Potency Ratio” value was determined as 7.7.
For `CCCCCCCCCCCCCCCCCC(=O)N[C@@H](CCC(=O)N[C@@H](CCC(=O)NCCOCCOCCOCCOCCC(=O)NCCCC[C@H](NC(=O)[C@H](CO)NC(=O)[C@H](CC(=O)O)NC(=O)[C@H](CC(C)C)NC(=O)[C@](C)(Cc1ccccc1)NC(=O)[C@H](CCCCN)NC(=O)[C@H](CO)NC(=O)[C@@H](NC(=O)[C@H](CC(=O)O)NC(=O)[C@H](CO)NC(=O)[C@@H](NC(=O)[C@](C)(Cc1ccccc1)NC(=O)[C@H](CO)NC(=O)CNC(=O)[C@H](CCC(N)=O)NC(=O)C(C)(C)NC(=O)[C@@H](N)Cc1c[nH]cn1)[C@@H](C)O)C(C)C)C(=O)N[C@@H](CCCNC(=N)N)C(=O)N[C@@H](C)C(=O)N[C@@H](CCC(N)=O)C(=O)N[C@@H](CC(=O)O)C(=O)N[C@@](C)(Cc1ccccc1)C(=O)N[C@H](C(=O)N[C@@H](CCC(=O)O)C(=O)NC(C)(C)C(=O)N[C@@H](CC(C)C)C(=O)N[C@@H](CCC(=O)O)C(=O)N[C@@H](C)C(=O)NCC(=O)NCC(N)=O)C(C)C)C(=O)O)C(=O)O` [Peptide 70] (H-H[Aib]QGS[αMeF]TSDVSK[αMeF]LDSK([PEG4-γGlu-γGlu-Stearoyl])RAQD[αMeF]VE[Aib]LEAGG-NH2), in assay [1], the EC50 turned out to be 0.0309 nM. Further, in assay [2], the EC50 is 1.55 pM and the “% Relative Potency Ratio” value came to 39.4.
Regarding `CCCCCCCCCCCCCCCC(=O)N[C@@H](CCC(=O)N[C@@H](CCC(=O)NCCOCCOCCOCCOCCC(=O)NCCCC[C@H](NC(=O)[C@H](CO)NC(=O)[C@H](CC(=O)O)NC(=O)[C@H](CC(C)C)NC(=O)[C@](C)(Cc1ccccc1)NC(=O)[C@H](CCCCN)NC(=O)[C@H](CO)NC(=O)[C@@H](NC(=O)[C@H](CC(=O)O)NC(=O)[C@H](CO)NC(=O)[C@@H](NC(=O)[C@](C)(Cc1ccccc1)NC(=O)[C@H](CO)NC(=O)CNC(=O)[C@H](CCC(N)=O)NC(=O)C(C)(C)NC(=O)[C@@H](N)Cc1c[nH]cn1)[C@@H](C)O)C(C)C)C(=O)N[C@@H](C)C(=O)N[C@@H](C)C(=O)N[C@@H](CCC(N)=O)C(=O)N[C@@H](CC(=O)O)C(=O)N[C@@](C)(Cc1ccccc1)C(=O)N[C@H](C(=O)N[C@@H](CCC(=O)O)C(=O)NC(C)(C)C(=O)N[C@@H](CC(C)C)C(=O)N[C@@H](CCC(=O)O)C(=O)N[C@@H](C)C(=O)NCC(=O)NCC(N)=O)C(C)C)C(=O)O)C(=O)O` [Peptide 72] (H-H[Aib]QGS[αMeF]TSDVSK[αMeF]LDSK([PEG4-γGlu-γGlu-Palmitoyl])AAQD[αMeF]VE[Aib]LEAGG-NH2), the EC50 in assay [1] is 0.0737 nM. In addition, in assay [2], the EC50 is 3.42 pM and the “% Relative Potency Ratio” value is listed as 42.6.
In the case of `CCCCCCCCCCCCCCCC(=O)N[C@@H](CCC(=O)N[C@@H](CCC(=O)NCCOCCOCCC(=O)NCCOCCOCCC(=O)NCCCC[C@H](NC(=O)[C@H](CO)NC(=O)[C@H](CC(=O)O)NC(=O)[C@H](CC(C)C)NC(=O)[C@](C)(Cc1ccccc1)NC(=O)[C@H](CCCCN)NC(=O)[C@H](CO)NC(=O)[C@@H](NC(=O)[C@H](CC(=O)O)NC(=O)[C@H](CO)NC(=O)[C@@H](NC(=O)[C@](C)(Cc1ccccc1)NC(=O)[C@H](CO)NC(=O)CNC(=O)[C@H](CCC(N)=O)NC(=O)C(C)(C)NC(=O)[C@@H](N)Cc1c[nH]cn1)[C@@H](C)O)C(C)C)C(=O)N[C@@H](C)C(=O)N[C@@H](C)C(=O)N[C@@H](CCC(N)=O)C(=O)N[C@@H](CC(=O)O)C(=O)N[C@H](C(=O)N[C@H](C(=O)N[C@@H](CCC(N)=O)C(=O)N[C@H](C(=O)N[C@H](C(=O)N[C@@H](C)C(=O)N[C@@H](CC(N)=O)C(N)=O)[C@@H](C)CC)[C@@H](C)CC)C(C)C)[C@@H](C)CC)C(=O)O)C(=O)O` [Peptide 75] (H-H[Aib]QGS[αMeF]TSDVSK[αMeF]LDSK([PEG2-PEG2-γGlu-γGlu-Palmitoyl])AAQDIVQIIAN-NH2; N-terminus assumed), the EC50 in assay [1] turned out to be 2.8 nM. Also, in assay [2], the EC50 came to 18.9 pM and the “% Relative Potency Ratio” value is given as 293.5.
Consider `CCCCCCCCCCCCCCCCCC(=O)N[C@@H](CCC(=O)N[C@@H](CCC(=O)NCCOCCOCCC(=O)NCCOCCOCCC(=O)NCCCC[C@H](NC(=O)[C@H](CO)NC(=O)[C@H](CC(=O)O)NC(=O)[C@H](CC(C)C)NC(=O)[C@](C)(Cc1ccccc1)NC(=O)[C@H](CCCCN)NC(=O)[C@H](CO)NC(=O)[C@@H](NC(=O)[C@H](CC(=O)O)NC(=O)[C@H](CO)NC(=O)[C@@H](NC(=O)[C@](C)(Cc1ccccc1)NC(=O)[C@H](CO)NC(=O)CNC(=O)[C@H](CCC(N)=O)NC(=O)C(C)(C)NC(=O)[C@@H](N)Cc1c[nH]cn1)[C@@H](C)O)C(C)C)C(=O)N[C@@H](C)C(=O)N[C@@H](C)C(=O)N[C@@H](CCC(N)=O)C(=O)N[C@@H](CC(=O)O)C(=O)N[C@@](C)(Cc1ccccc1)C(=O)N[C@H](C(=O)N[C@@H](CCC(N)=O)C(=O)NC(C)(C)C(=O)N[C@H](C(=O)N[C@H](C(=O)N[C@@H](CCC(=O)O)C(=O)NCC(=O)NCC(N)=O)C(C)C)C(C)C)C(C)C)C(=O)O)C(=O)O` [Peptide 76] (H-H[Aib]QGS[αMeF]TSDVSK[αMeF]LDSK([PEG2-PEG2-γGlu-γGlu-Stearoyl])AAQD[αMeF]VQ[Aib]VVEGG-NH2; N-terminus assumed), for which the concentration giving a half-maximal response (EC50) in assay [1] came to 0.34 nM. Moreover, in assay [2], the EC50 came to 1.78 pM and the “% Relative Potency Ratio” value is given as 378.6.
